The values that follow come from ChEMBL document CHEMBL3286199, “Synthesis, in vitro antimicrobial and cytotoxic activities of novel pyrimidine-benzimidazol combinations” (Bioorg Med Chem Lett, 2014).

In brackets after ≈: the same amount, converted by molar mass.

One assay relates to Staphylococcus aureus. Kind of assay: Antimicrobial activity against Staphylococcus aureus after 18 to 24 hrs by broth microdilution method. In kind it is functional.
A further assay concerns Bacillus subtilis. Put plainly: Antimicrobial activity against Bacillus subtilis after 18 to 24 hrs by broth microdilution method. It is filed as functional.
The next assay has as its system Escherichia coli. Kind of assay: Antimicrobial activity against Escherichia coli after 18 to 24 hrs by broth microdilution method. In kind it is functional.
In assay [1] the test system is Stenotrophomonas maltophilia. Put plainly: Antimicrobial activity against Stenotrophomonas maltophilia after 18 to 24 hrs by broth microdilution method. It is filed as functional.
A further assay has as its system Candida albicans. Put plainly: Antimicrobial activity against Candida albicans after 48 hrs by broth microdilution method. It is filed as functional.
In the next assay the test system is MGC-803. Kind of assay: Cytotoxicity against human MGC803 cells after 72 hrs by MTT assay. In kind it is functional, cell-based. The following applies: MGC-803, 72 h.
A further assay deals with MCF7. Kind of assay: Cytotoxicity against human MCF7 cells after 72 hrs by MTT assay. It is filed as functional, cell-based. The following applies: MCF7, 72 h.
Assay [2] in a line: Cytotoxicity against human EC109 cells after 72 hrs by MTT assay. In kind it is functional, cell-based. The following applies: ECa-109, 72 h.
In a further assay the test system is PC-3. Put plainly: Cytotoxicity against human PC3 cells after 72 hrs by MTT assay. It is filed as functional, cell-based. The following applies: PC-3, 72 h.

On to `Cc1cc(N(C)Cc2ccccc2)nc(SCc2nc3ccccc3[nH]2)n1`, for which the MIC in the assay on Staphylococcus aureus is 128 mg/L (≈ 341 µM); against Bacillus subtilis, over 128 mg/L; in the assay with Escherichia coli, over 128 mg/L; in assay [1], 16 mg/L (≈ 42.6 µM); in the assay on Candida albicans it was 128 mg/L (≈ 341 µM). The IC50 in the assay with MGC-803 was 31.3 µM; in the assay on MCF7, over 100 µM; in assay [2], over 100 µM; with PC-3, over 100 µM.
As for `OC(Cn1cncn1)(Cn1cncn1)c1ccc(F)cc1F` [FLUCONAZOLE], the MIC in the assay with Candida albicans turned out to be 2 mg/L (≈ 6.53 µM).
As to `Cc1cc(Nc2ccc(Br)cc2)nc(SCc2nc3ccccc3[nH]2)n1`, the MIC with Staphylococcus aureus stood at 16 mg/L (≈ 37.5 µM); in the assay on Bacillus subtilis, 128 mg/L (≈ 300 µM); in the assay on Escherichia coli, 128 mg/L (≈ 300 µM); in [1] it was 4 mg/L (≈ 9.38 µM); against Candida albicans it was 8 mg/L (≈ 18.8 µM). For the same compound, the IC50 stood at 26.8 µM with MGC-803, 38 µM in the assay on MCF7, 42.9 µM in assay [2] and 37.1 µM with PC-3.
`Cc1cc(NNC(N)=S)nc(SCc2nc3ccccc3[nH]2)n1`: the MIC was over 128 mg/L against Staphylococcus aureus; over 128 mg/L in the assay on Bacillus subtilis; over 128 mg/L in the assay with Escherichia coli; 128 mg/L (≈ 371 µM) in assay [1]; 128 mg/L (≈ 371 µM) in the assay with Candida albicans. Further, the IC50 (in the assay with MGC-803; in the assay on MCF7; in [2]; in the assay on PC-3) was over 100 µM throughout.
For `COc1ccccc1Nc1cc(C)nc(SCc2nc3ccccc3[nH]2)n1`, the MIC against Staphylococcus aureus was over 128 mg/L; against Bacillus subtilis, 32 mg/L (≈ 84.8 µM); against Escherichia coli it was 32 mg/L (≈ 84.8 µM); in assay [1], 8 mg/L (≈ 21.2 µM); with Candida albicans, 128 mg/L (≈ 339 µM). The IC50 in the assay with MGC-803 was 56.2 µM; in the assay with MCF7, over 100 µM; in assay [2], 34.4 µM; with PC-3, 70.8 µM.
As for `Cc1cc(Nc2cccc(C(F)(F)F)c2)nc(SCc2nc3ccccc3[nH]2)n1`, the minimal inhibitory concentration (MIC) was over 128 mg/L in the assay with Staphylococcus aureus; over 128 mg/L in the assay with Bacillus subtilis; over 128 mg/L with Escherichia coli; 8 mg/L (≈ 19.3 µM) in assay [1]; over 128 mg/L in the assay on Candida albicans. Also, the IC50 (in the assay with MGC-803; in the assay with MCF7; in assay [2]; in the assay with PC-3) was over 100 µM throughout.
Take `Cc1cc(NC(C)C)nc(SCc2nc3ccccc3[nH]2)n1`: the MIC is over 128 mg/L with Staphylococcus aureus; over 128 mg/L against Bacillus subtilis; over 128 mg/L against Escherichia coli; 32 mg/L (≈ 102 µM) in assay [1]; 128 mg/L (≈ 408 µM) in the assay on Candida albicans. Moreover, the IC50 (in the assay with MGC-803; in the assay on MCF7; in assay [2]; in the assay with PC-3) was over 100 µM in each case.
With `Cc1cc(N2CCOCC2)nc(SCc2nc3ccccc3[nH]2)n1`, the MIC in the assay with Staphylococcus aureus is over 128 mg/L; against Bacillus subtilis, over 128 mg/L; with Escherichia coli, over 128 mg/L; in assay [1], 32 mg/L (≈ 93.7 µM); with Candida albicans, over 128 mg/L. The IC50 (in the assay on MGC-803; in the assay with MCF7; in [2]; in the assay with PC-3) was over 100 µM in each case.
Turning to `COc1ccc(Nc2cc(C)nc(SCc3nc4ccccc4[nH]3)n2)cc1`, the MIC is 64 mg/L (≈ 170 µM) with Staphylococcus aureus; 32 mg/L (≈ 84.8 µM) in the assay on Bacillus subtilis; 128 mg/L (≈ 339 µM) in the assay on Escherichia coli; 16 mg/L (≈ 42.4 µM) in assay [1]; 64 mg/L (≈ 170 µM) against Candida albicans. Further, the IC50 in the assay with MGC-803 amounted to 51.1 µM; with MCF7 it was 61.1 µM; in assay [2], 69.8 µM; in the assay on PC-3, 67.4 µM.
With `Cc1cc(N(CCO)CCO)nc(SCc2nc3ccccc3[nH]2)n1`, the MIC was over 128 mg/L with Staphylococcus aureus; over 128 mg/L in the assay on Bacillus subtilis; 64 mg/L (≈ 178 µM) against Escherichia coli; 128 mg/L (≈ 356 µM) in [1]; over 128 mg/L in the assay with Candida albicans. Also, the IC50 (in the assay with MGC-803; with MCF7; in [2]; in the assay with PC-3) was over 100 µM throughout.
As for `C[C@H]1COc2c(N3CCN(C)CC3)c(F)cc3c(=O)c(C(=O)O)cn1c23.C[C@H]1COc2c(N3CCN(C)CC3)c(F)cc3c(=O)c(C(=O)O)cn1c23.O` [LEVOFLOXACIN], the MIC in the assay with Staphylococcus aureus worked out at 0.5 mg/L; in the assay with Bacillus subtilis, 0.25 mg/L; in the assay with Escherichia coli it was 0.125 mg/L; in assay [1], 0.25 mg/L.
In the case of `Cc1cc(Nc2ccc(Cl)cc2)nc(SCc2nc3ccccc3[nH]2)n1`, the minimal inhibitory concentration (MIC) against Staphylococcus aureus was found to be 8 mg/L (≈ 20.9 µM); against Bacillus subtilis, 128 mg/L (≈ 335 µM); against Escherichia coli it was 128 mg/L (≈ 335 µM); in [1] it was 2 mg/L (≈ 5.24 µM); against Candida albicans it was 64 mg/L (≈ 168 µM). Also, the IC50 in the assay on MGC-803 turned out to be 28.2 µM; in the assay with MCF7, 33.6 µM; in [2], 20.4 µM; with PC-3, 36 µM.
With `Cc1cc(Nc2ccc(F)cc2)nc(SCc2nc3ccccc3[nH]2)n1`, the MIC worked out at 32 mg/L (≈ 87.6 µM) against Staphylococcus aureus; 64 mg/L (≈ 175 µM) against Bacillus subtilis; 64 mg/L (≈ 175 µM) against Escherichia coli; 32 mg/L (≈ 87.6 µM) in assay [1]; 8 mg/L (≈ 21.9 µM) in the assay on Candida albicans. Further, the half-inhibitory concentration (IC50) turned out to be 5.77 µM in the assay with MGC-803, 42.2 µM in the assay with MCF7, 69.5 µM in assay [2] and 56.2 µM in the assay on PC-3.
Take `O=c1[nH]cc(F)c(=O)[nH]1` [FLUOROURACIL]: the IC50 in the assay with MGC-803 came out at 8.13 µM; with MCF7, 7.76 µM; in [2], 24.1 µM; in the assay on PC-3, 4.68 µM.
Consider `Cc1cc(NCCO)nc(SCc2nc3ccccc3[nH]2)n1`, for which the MIC was over 128 mg/L against Staphylococcus aureus; over 128 mg/L in the assay on Bacillus subtilis; 64 mg/L (≈ 203 µM) in the assay on Escherichia coli; 64 mg/L (≈ 203 µM) in [1]; over 128 mg/L against Candida albicans. The IC50 (in the assay with MGC-803; with MCF7; in assay [2]; in the assay with PC-3) was over 100 µM throughout.
For `Cc1cc(N2CCNCC2)nc(SCc2nc3ccccc3[nH]2)n1`, the minimal inhibitory concentration (MIC) with Staphylococcus aureus is over 128 mg/L; in the assay on Bacillus subtilis, 128 mg/L (≈ 376 µM); against Escherichia coli it was over 128 mg/L; in assay [1], 32 mg/L (≈ 94 µM); against Candida albicans, over 128 mg/L. For the same compound, the half-inhibitory concentration (IC50) (in the assay with MGC-803; in the assay on MCF7; in assay [2]; with PC-3) was over 100 µM each time.
As to `Cc1ccc(Nc2cc(C)nc(SCc3nc4ccccc4[nH]3)n2)cc1`, the minimal inhibitory concentration (MIC) was 32 mg/L (≈ 88.5 µM) in the assay on Staphylococcus aureus; 64 mg/L (≈ 177 µM) in the assay with Bacillus subtilis; 32 mg/L (≈ 88.5 µM) in the assay with Escherichia coli; 8 mg/L (≈ 22.1 µM) in [1]; 64 mg/L (≈ 177 µM) against Candida albicans. For the same compound, the IC50 in the assay with MGC-803 was determined as 7.39 µM; with MCF7 it was 56.5 µM; in assay [2], 57.3 µM; in the assay on PC-3, 56 µM.
As for `Cc1cc(N2CCCCC2)nc(SCc2nc3ccccc3[nH]2)n1`, the MIC in the assay with Staphylococcus aureus was over 128 mg/L; against Bacillus subtilis, over 128 mg/L; against Escherichia coli, over 128 mg/L; in assay [1], 64 mg/L (≈ 189 µM); in the assay with Candida albicans, 32 mg/L (≈ 94.3 µM). Moreover, the IC50 (with MGC-803; in the assay with MCF7; in [2]; with PC-3) was over 100 µM in each case.
